Results reported in ChEMBL document CHEMBL1142905, “1,4-Bis(alkylamino)benzo[g]phthalazines able to form dinuclear complexes of Cu(II) which as free ligands behave as SOD inhibitors and show efficient in vitro activity against Trypanosoma cruzi” (Bioorg Med Chem, 2007).
≈ marks a conversion by molar mass, not a printed value.

Tests used:
Trypanosoma cruzi [1] = experiment: Inhibition of Trypanosoma cruzi Maracay epimastigotes after 24 hrs; type: functional, organism-based
Trypanosoma cruzi [2] = experiment: Inhibition of Trypanosoma cruzi Maracay epimastigotes after 48 hrs; type: functional, organism-based
Trypanosoma cruzi [3] = experiment: Inhibition of Trypanosoma cruzi Maracay epimastigotes after 72 hrs; type: functional, organism-based
[4] = Toxicity against Vero cells after 72 hrs; type: cell-based; settings: Chlorocebus sabaeus (African green monkey)
Trypanosoma cruzi [5] = experiment: Inhibition of Fe-SOD in Trypanosoma cruzi Maracay at 10 ug/mL
Trypanosoma cruzi [6] = experiment: Inhibition of Fe-SOD in Trypanosoma cruzi Maracay at 25 ug/mL
Homo sapiens [7] = organism: Homo sapiens; experiment: Inhibition of Cu-Zn SOD in human erythrocytes at 1 ug/mL; type: cell-based
Homo sapiens [8] = organism: Homo sapiens; experiment: Inhibition of Cu-Zn SOD in human erythrocytes at 10 ug/mL; type: cell-based
Homo sapiens [9] = organism: Homo sapiens; experiment: Inhibition of Cu-Zn SOD in human erythrocytes at 25 ug/mL; type: cell-based
Trypanosoma cruzi [10] = experiment: Inhibition of Fe-SOD in Trypanosoma cruzi Maracay at 1 ug/mL
Trypanosoma cruzi [11] = experiment: Inhibition of rate of infection with Trypanosoma cruzi Maracay metacyclic form in Vero cells at 5 ug/mL after 2 days; type: functional; parameters: scale not given: the % may be the effect or the level left
Trypanosoma cruzi [12] = experiment: Inhibition of rate of infection with Trypanosoma cruzi Maracay metacyclic form in Vero cells at 5 ug/mL after 8 days; type: functional; settings: 192 h
Trypanosoma cruzi [13] = experiment: Reduction of Trypanosoma cruzi Maracay amastigotes infection in Vero cells at 5 ug/Ml after 8 days relative to control; type: functional; parameters: scale not given: the % may be the effect or the level left
Trypanosoma cruzi [14] = experiment: Reduction of Trypanosoma cruzi Maracay trypomastigote infection in Vero cells; type: functional; parameters: scale not given: the % may be the effect or the level left

Row | IC50 (Trypanosoma cruzi [1]) [µg/mL] | IC50 (Trypanosoma cruzi [2]) [µg/mL] | IC50 (Trypanosoma cruzi [3]) [µg/mL] | inhibition (Trypanosoma cruzi [5]) [%] | inhibition (Trypanosoma cruzi [6]) [%] | inhibition (Trypanosoma cruzi [10]) [%] | Compound | IC50 at 72 h [4] [µg/mL] | inhibition (Homo sapiens [7]) [%] | inhibition (Homo sapiens [8]) [%] | inhibition (Homo sapiens [9]) [%] | Activity (Trypanosoma cruzi [11]) [%] | inhibition at 5 µg/mL (Trypanosoma cruzi [12]) [%] | Activity (Trypanosoma cruzi [13]) [%] | Activity (Trypanosoma cruzi [14]) [%]
1 | 75.4 (≈ 195 µM) | 62.6 (≈ 162 µM) | 30.6 (≈ 79.2 µM) | 34 | 53 | 27 | OCCOCCNc1nnc(NCCOCCO)c2cc3ccccc3cc12 | 93.5 (≈ 242 µM) | 0 | 0 | 0 | – | – | – | –
2 | – | – | – | – | – | – | O=C(Cn1ccnc1[N+](=O)[O-])NCc1ccccc1 [BENZNIDAZOLE] | 3.53 (≈ 13.6 µM) | – | – | – | – | – | – | –
3 | 56.8 (≈ 112 µM) | 12.8 (≈ 25.3 µM) | 3.25 (≈ 6.39 µM) | 68 | 75 | 64 | c1ccc(COCCCNc2nnc(NCCCOCc3ccccn3)c3cc4ccccc4cc23)nc1 | 6.25 (≈ 12.3 µM) | 0 | 7 | 11 | 35 | 68 | 44 | 74
4 | – | 15.6 (≈ 40.6 µM) | 12 (≈ 31.3 µM) | 73 | 100 | 48 | NCCOCCNc1nnc(NCCOCCN)c2cc3ccccc3cc12 | 67.3 (≈ 175 µM) | 0 | 11 | 17 | – | 57 | 43 | 65
